# Article PMC10976219, “Purification and Biochemical Characterization of Polyphenol Oxidase Extracted from Wheat Bran (Wan grano)” (Molecules, 2024)
# System: T1, wheat PPO (purified wheat bran polyphenol oxidase)
# T1 construct: gene PPO-A1; native, purified from wheat bran (ammonium sulfate, DEAE-Sepharose, Superdex G-75); approx. 21 kDa on SDS-PAGE, dual bands 21 and 17 kDa
# Assay: spectrophotometric oxidation assay at […] nm, Lineweaver-Burk
# Type: biochemical, Triticum aestivum
# Settings: 50 mM phosphate pH 6.5, 35 °C, 2-10 mM substrate
row,Km [mM],Structure (SMILES)
1,7.9 ± 0.64,O=C(O[C@@H]1Cc2c(O)cc(O)cc2O[C@@H]1c1ccc(O)c(O)c1)c1cc(O)c(O)c(O)c1 [epicatechin gallate]
2,8.01 ± 0.46,Oc1cc(O)c2c(c1)O[C@H](c1ccc(O)c(O)c1)[C@H](O)C2 [epicatechin]
3,7.37 ± 0.71,Oc1cccc(O)c1O [pyrogallic acid]

# The next lines start with the compound.
row,Structure (SMILES),Km [mM]
1,Oc1ccccc1O [catechol],6.36 ± 0.71
2,O=C(O[C@@H]1Cc2c(O)cc(O)cc2O[C@@H]1c1cc(O)c(O)c(O)c1)c1cc(O)c(O)c(O)c1 [epigallocatechin gallate],7.7 ± 0.14
3,Oc1cc(O)c2c(c1)O[C@H](c1cc(O)c(O)c(O)c1)[C@H](O)C2 [epigallocatechin],9.05 ± 0.18
4,O=C(O)c1cc(O)c(O)c(O)c1 [gallic acid],7.05 ± 0.47
